The text below walks through data of US20230181535A1, “UBIQUITIN-LIGASE INHIBITORS FOR THE TREATMENT OF CANCER” (FUNDACIÓN PROFESOR NOVOA SANTOS, priority 2020, published 2023).

The test system of this test is Hakai-MDCK cells. Nature of the test: Invasion assay, Hakai-MDCK. The test is classed as cell-based. The note with it: treated 48 h. As for the experimental part: For invasion assays, cells were treated with Hakin-1 or DMSO as vehicle for 48 h using 1% FBS during the last 24 hours. 3×10^5 MDCK, MDCK-Hakai or LoVo cells were seeded in a cell invasion chamber (Cell invasion assay kit, Chemicon International) containing medium with 2% FBS. After 72 hours for MDCK and MDCK-Hakai Invasive and 16 h for LoVo cells, invasive cells invaded that reach the lower chamber containing 30% FBS were fixed and stained with crystal violet (Sigma Aldrich, St Louis, Mo.) following the manufacturer's specifications. For migration assays, HT29 cells were cultured with Hakin-1 or DMSO as vehicle for 48 h, using medium without serum the last 24 h. In the cell migration chamber were seeded 3×10^5 HT29 cells (Cell migration kit, Millipore, Bedford, Mass.) containing medium without serum. After 16 h, migrated cells in the lower chamber containing serum with 30% FBS were stained with crystal violet and counted following the manufacturer's specifications. For both invasion and migration assays cells were counted in five fields photographed with an Olympus microscope using a 20× objective, experiments were performed in triplicates for each condition and the assays were repeated at least three times. Results are expressed as mean±SD.

As to `O=C(O)c1ccc(-n2nnnc2SCC(=O)c2ccc([N+](=O)[O-])cc2)cc1` [Hakin-1, 4-(5-[2-(4-nitrophenyl)-2-oxoethyl]thiol-1H-tetrazol-1-yl)benzoic acid], the cell invasion entry was “decreased cell invasion”.
